From ChEMBL document CHEMBL4414647, “Austalides, Osteoclast Differentiation Inhibitors from a Marine-Derived Strain of the Fungus Penicillium rudallense” (J Nat Prod, 2019)
Calls of active or inactive are those of the source. The calls are words filed in the database; no cut-off is given here.

Tests used:
BMDM [1] = test: Cytotoxicity against ICR mouse bone marrow macrophage assessed as reduction in cell viability at 1 to 10 uM incubated for 3 days by WST-8 assay; assay type: cell-based; details: 72 h
[2] = Inhibition of RANKL-induced osteoclast differentiation in ICR mouse bone marrow macrophage assessed as reduction in multinucleated TRAP+ cells preincubated for 3 days for RANKL stimulation followed by compound addition and measured after 1 day by TRAP staining based microscopy; assay type: functional; details: BMDM, read-out: ED50 (the source's name)
BMDM [3] = test: Inhibition of RANKL-induced osteoclast differentiation in ICR mouse bone marrow macrophage assessed as reduction in multinucleated TRAP+ cells at 10 uM preincubated for 3 days for RANKL stimulation followed by compound addition and measured after 1 day by TRAP staining based microscopy; assay type: functional, cell-based
BMDM [4] = test: Cytotoxicity against ICR mouse bone marrow macrophage assessed as reduction in cell viability at 10 uM incubated for 3 days by WST-8 assay; assay type: cell-based; details: 72 h

EC50 [2]	Compound	Activity (BMDM [1])	inhibition (BMDM [3])	Activity (BMDM [4])
1900 to 2800 nM	COC(=O)CC[C@]1(C)[C@H]2Cc3c(c(C)c4c(c3OC)C(=O)OC4)O[C@@]2(C)CC[C@H]1C(C)(C)O	Non-Toxic	–	–
–	COc1c2c(c(C)c3c1C(=O)OC3)O[C@@]1(C)CC[C@@H](C(C)(C)O)[C@](C)(CCC(=O)O)[C@H]1C2	–	inactive	–
–	C=C(C)[C@@H]1CC[C@]2(C)Oc3c(C)c4c(c(OC)c3C[C@@H]2[C@@]1(C)CCC(=O)OC)C(=O)OC4	–	inactive	–
1900 to 2800 nM	COc1c2c(c(C)c3c1C(=O)OC3)O[C@@]1(C)C[C@@H](O)[C@H]3C(C)(C)C(=O)CC[C@]3(C)[C@H]1C2	Non-Toxic	–	–
–	C=C(C)[C@@H]1[C@H](O)C[C@]2(C)Oc3c(C)c4c(c(OC)c3C[C@@H]2[C@@]1(C)CCC(=O)OC)C(=O)OC4	–	inactive	–
–	CC(C)=CCC/C(C)=C/CC/C(C)=C/Cc1c(O)c(C)c2c(c1O)C(=O)OC2	–	inactive	–
–	C/C(=C\Cc1c(O)c(C)c2c(c1O)C(=O)OC2)CC/C=C(\C)CCCC(C)(C)O	–	inactive	–
1900 to 2800 nM	Cc1c2c(c(O)c3c1O[C@@]1(C)CC[C@H]4C(C)(C)C(=O)CC[C@]4(C)[C@H]1C3)C(=O)OC2	–	–	Toxic
–	COC(=O)CC[C@]1(C)[C@H]2Cc3c(c(C)c4c(c3OC)C(=O)OC4)O[C@@]2(C)C[C@@H](O)[C@H]1C(C)(C)O	–	inactive	–
1900 to 2800 nM	COc1c2c(c(C)c3c1C(=O)OC3)O[C@@]1(C)CC[C@H]3C(C)(C)[C@@H](O)CC[C@]3(C)[C@H]1C2	Non-Toxic	–	–
1900 to 2800 nM	COc1c2c(c(C)c3c1C(=O)OC3)O[C@@]1(C)CC[C@H]3C(C)(C)OC(=O)CC[C@]3(C)[C@H]1C2	Non-Toxic	–	–
1900 to 2800 nM	COc1c2c(c(C)c3c1C(=O)OC3)O[C@@]1(C)CC[C@@]3(O)C(C)(C)C(=O)CC[C@]3(C)[C@H]1C2	Non-Toxic	–	–
